Consider two compounds from US9029414B2, “Triterpenoid compounds and methods of use thereof” (Biotechnology Research Corporation, priority 2008, dated 2015).

One test concerns the target human MC1 receptor (Homo sapiens, UniProt Q01726). Nature of the test: Radioligand competition binding assay, MC1. Here is the method:
DA001 was evaluated against 109 receptor binding assays and 17 enzyme assays, comprising of selective, central and peripheral therapeutically-relevant targets. Radioligand competition assays were conducted whereby DA001 was tested at one concentration (10 μM) in duplicate. […] It could compete with the radioligand [^125I-NDP-alpha-melanocyte-stimulating hormone (α-MSH)] binding for MC1 and MC4 but not MC3 and MC5 nor the related family, the melanin concentrating hormone receptors (MCH1 and MCH2).
To determine the IC50 for DA001 to inhibit α-MSH binding on MC1 and MC4 receptor, the compound was further characterized by a dose-dependent study. DA001 was evaluated with 8 concentrations on MC1 and MC4 receptor binding assays.
The specific ligand binding to the receptors is defined as the difference between the total binding and the nonspecific binding determined in the presence of an excess of unlabelled ligand. The results are expressed as a percent of control specific binding [(measured specific binding/control specific binding)×100] and as a percent inhibition of control specific binding {100−[(measured specific binding/control specific binding)×100]} obtained in the presence of DA001. The IC50 values (concentration causing a half-maximal inhibition of control specific binding) and Hill coefficients (nH) were determined by non-linear regression analysis of the competition curves generated with mean replicate values using Hill equation curve fitting (Y=D+[(A−D)/(1+(C/C50)nH)], where Y=specific binding, D=minimum specific binding, A=maximum specific binding, C=compound concentration, C50=IC50, and nH=slope factor). This analysis was performed using a software developed at Cerep (Hill software) and validated by comparison with data generated by the commercial software SigmaPlot® 4.0 for Windows® (© 1997 by SPSS Inc.).

The next test concerns hippocampal neurons. In words: Hippocampal neuron survival assay against glutamate excitotoxicity (LDH). The format is cell-based, Sprague-Dawley rats. As to conditions: 30 μM 24 hrs, glutamate 10-200 μM 20 min. Here is the method:
Hippocampal neurons/cortical neurons were prepared from embryonic day 18 Sprague-Dawley rats. After the cortices had been removed from the brain, isolated cells were plated onto Poly d-Lysine (PDL) (P0899, Sigma)-coated 48 well plates (150687, NUNC) at a density of 2×10^5 cell per well using Neurobasal Medium (NB) (21103-049, Gibco) with B27 supplement (17504-044, Gibco), penicillin/streptomycin (15140, Gibco) and 1 mM L-glutamine (25030, Gibco). The cell culture was incubated at 37° C. in a humidified atmosphere of 5% CO2 in air. Medium was changed to growth medium (Neurobasal Medium with penicillin/streptomycin and B27 supplement) after 3 hours. Half medium was changed with growth medium every 2-3 days to maintain the cells until day 10 in vitro (DIV 10). Serial dilutions of samples were prepared in growth medium and DMSO was used as vehicle control. For pre-treating assay, half of the medium was removed from wells, and equal amount of diluted samples were replaced. Cells were then incubated for 2 hours at 37° C. in a humidified atmosphere of 5% CO2 in air. […] Afterwards, cells were incubated in growth medium for 18-24 hours and detected with Cytotoxicity Detection Kit (1644793, Roche).
Hippocampal neurons were treated with DA021 and subsequently subjected to varying concentrations of glutamate. […] LDH release into the medium was then measured.

The target in the next test is EP3 receptor (Homo sapiens, UniProt P43115). Nature of the test: Radioligand competition binding assay, EP3. As to conditions: EP3, target PGE2; compound at 10 μM in duplicate; read-out: % inhibition of control specific binding. Here is the method: To determine the targets of DA compounds, the compound was assessed in binding assays for the family of prostanoid receptors. Both compounds were tested at a single concentration (10 μM) in duplicate. DA001 and DA021 inhibit the ligand binding of prostaglandin E2 receptors EP1, EP2 and EP4 and moderately to prostaglandin (PGF) to its receptor (FP), but not prostaglandin I (PGI2), thromoboxane A and prostaglandin D2 to their receptors.
(In general: Displacement assays read how much labelled ligand stays bound in the presence of the test substance.)

human MC1 receptor, sequence (Q01726 whole entry): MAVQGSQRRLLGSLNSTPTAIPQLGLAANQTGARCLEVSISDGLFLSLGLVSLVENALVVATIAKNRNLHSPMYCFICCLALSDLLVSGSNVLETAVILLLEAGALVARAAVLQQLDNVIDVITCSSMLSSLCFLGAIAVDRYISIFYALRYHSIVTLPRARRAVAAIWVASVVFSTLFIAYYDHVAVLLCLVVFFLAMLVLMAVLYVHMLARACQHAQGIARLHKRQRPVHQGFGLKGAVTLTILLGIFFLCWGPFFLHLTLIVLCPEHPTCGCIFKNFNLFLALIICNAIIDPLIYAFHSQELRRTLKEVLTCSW
EP3 receptor, sequence (P43115 whole entry): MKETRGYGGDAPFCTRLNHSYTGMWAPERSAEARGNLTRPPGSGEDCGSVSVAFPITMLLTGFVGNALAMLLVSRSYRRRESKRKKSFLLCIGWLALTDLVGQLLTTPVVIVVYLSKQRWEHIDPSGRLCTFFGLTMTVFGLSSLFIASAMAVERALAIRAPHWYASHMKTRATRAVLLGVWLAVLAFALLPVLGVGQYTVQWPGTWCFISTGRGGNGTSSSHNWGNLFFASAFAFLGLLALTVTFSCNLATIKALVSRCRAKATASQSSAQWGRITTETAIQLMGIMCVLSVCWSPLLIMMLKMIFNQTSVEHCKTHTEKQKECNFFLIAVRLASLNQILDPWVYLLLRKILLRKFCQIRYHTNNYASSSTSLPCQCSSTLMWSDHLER

For orientation: Ki means the equilibrium dissociation constant of an inhibitor or competing ligand from its target. Lower therefore signals higher affinity. A word on the IC50: it is the midpoint of a concentration-inhibition curve. A low value points to higher potency. On to `C=C(C)[C@@H]1CC[C@]2(C(=O)O)CC[C@]3(C)C(CC[C@@H]4[C@@]5(C)CC[C@H](O[C@@H]6OC[C@H](O)[C@H](O)[C@H]6O[C@@H]6O[C@@H](C)[C@H](O)[C@@H](O)[C@H]6O)[C@@](C)(CO)[C@@H]5CC[C@]43C)[C@@H]12` (stereo partly drawn) [DA001, 3-O-[α-L-rhamnopyranosyl-(1→2)-α-L-arabinopyranosyl]-3,23-dihydroxy-20(29)-lupen-28-oic acid], for which the Ki at human MC1 receptor was 5.2 µM. The IC50 on human MC1 receptor (8 concentrations) was 10 µM. On human MC1 receptor (Hill coefficient), this compound came in with a nH of 0.9.

Usually inhibition stands for the change of the read-out against control, counted positive when it falls. As to `C=C(C)[C@@H]1CC[C@]2(/C=N/O)CC[C@]3(C)C(CCC4[C@@]5(C)CCC(=O)[C@@](C)(CO)[C@@H]5CC[C@]43C)C12` (some centres unmarked) [DA021], in the test on hippocampal neurons, the “protection from glutamate-induced excitotoxicity (LDH release)” value is “protects neurons against differing concentrations of glutamate”. The inhibition at 10 µM on EP3 receptor was -3%.
